From patent publication US20120202856A1, “SUBSTITUTED BENZIMDAZOLE DERIVATIVES USEFUL AS TRPM8 RECEPTOR MODULATORS” (priority 2011, published 2012)
“And” between values parts separate entries of the source, which are not always exact repeats. Identical values can stand only once. Counter-ions that a name gives are not always drawn.

target: T1, canine TRPM8 (Canis lupus familiaris, UniProt Q1A7N1); assay: In Vitro Canine TRPM8 Functional Assay (intracellular Ca2+ fluorescence, icilin activation, HEK293 cells); assay type: cell-based; settings: HEK293, 0.2 μM test compound; individually measured values; read-out: % Inh (%) @0.2 μM, in vitro TRP M8 Activity
T1 construct: expressed in transfected cells
T1 sequence (Q1A7N1 1-1104): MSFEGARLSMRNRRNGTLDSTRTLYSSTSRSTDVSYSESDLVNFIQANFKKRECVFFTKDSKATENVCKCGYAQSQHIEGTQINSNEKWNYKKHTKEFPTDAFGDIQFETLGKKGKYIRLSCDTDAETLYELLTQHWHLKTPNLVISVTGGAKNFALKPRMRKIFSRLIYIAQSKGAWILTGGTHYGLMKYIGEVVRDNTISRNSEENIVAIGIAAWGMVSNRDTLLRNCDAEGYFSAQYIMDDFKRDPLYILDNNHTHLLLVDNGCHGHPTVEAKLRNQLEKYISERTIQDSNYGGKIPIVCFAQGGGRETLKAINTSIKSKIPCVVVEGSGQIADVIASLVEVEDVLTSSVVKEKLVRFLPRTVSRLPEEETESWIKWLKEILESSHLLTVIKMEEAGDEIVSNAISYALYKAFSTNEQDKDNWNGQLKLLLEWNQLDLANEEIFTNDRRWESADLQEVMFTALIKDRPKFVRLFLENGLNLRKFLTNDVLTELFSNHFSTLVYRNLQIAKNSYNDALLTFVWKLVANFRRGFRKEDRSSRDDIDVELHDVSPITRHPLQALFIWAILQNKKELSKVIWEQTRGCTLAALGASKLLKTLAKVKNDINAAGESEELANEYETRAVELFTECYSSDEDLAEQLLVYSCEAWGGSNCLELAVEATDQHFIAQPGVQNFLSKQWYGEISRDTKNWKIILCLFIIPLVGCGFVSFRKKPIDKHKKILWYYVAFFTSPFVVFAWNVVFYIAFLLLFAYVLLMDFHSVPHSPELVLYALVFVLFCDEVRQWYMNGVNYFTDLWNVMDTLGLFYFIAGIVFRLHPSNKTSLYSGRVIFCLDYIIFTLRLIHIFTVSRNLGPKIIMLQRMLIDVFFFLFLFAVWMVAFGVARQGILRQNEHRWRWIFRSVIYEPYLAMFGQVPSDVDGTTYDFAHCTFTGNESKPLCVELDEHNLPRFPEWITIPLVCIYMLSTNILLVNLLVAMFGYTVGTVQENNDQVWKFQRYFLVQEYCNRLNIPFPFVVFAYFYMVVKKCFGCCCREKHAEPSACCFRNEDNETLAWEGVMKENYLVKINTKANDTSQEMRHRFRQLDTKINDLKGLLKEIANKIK
Description: The changes in fluorescent signal were monitored by a fluorescence plate reader, either a FLIPR™ (Molecular Devices) or FDSS (Hamamatsu). […] Cells were maintained in 5% CO2 at 37° C. At 24 hr prior to assay, cells were seeded in black wall, clear-base poly-D-lysine coated 384-well plates (BD Biosciences, NJ, USA) at a density of 5,000 cells per well in culture medium and grown overnight in 5% CO2 at 37° C. On assay day, growth media was removed, and cells were loaded with Calcium 3 Dye (Molecular Devices) for 35 min at 37° C., under 5% CO2 and then incubated for 25 min at room temperature and atmosphere. Subsequently, cells were tested for agonist-induced increases in intracellular Ca^2+ levels using FLIPR™ or FDSS. […] Maximal fluorescence intensity (FI) achieved upon addition of icilin was exported from the FLIPR™ or FDSS software and further analyzed using GraphPad Prism 3.02 (Graph Pad Software Inc., CA, U.S.A.). Basal FI was subtracted prior to normalizing data to percent of maximal response. Curves were generated using the average of quadruplicate wells for each data point using nonlinear regression of either sigmoidal dose response or sigmoidal dose response (variable slope). Finally, IC50 values were calculated with the best-fit curve determined by GraphPad Prism

inhibition at 0.2 µM [%] | Structure (SMILES)
100 | Cn1nc(C(C)(C)C)c(C#N)c1-c1nc2cc(-c3c(F)cccc3C(F)(F)F)cc(Cl)c2[nH]1 [Compound 172, 3-tert-Butyl-5-[7-chloro-5-(2-fluoro-6-trifluoromethyl-phenyl)-1H-benzimidazol-2-yl]-1-methyl-1H-pyrazole-4-carbonitrile sodium salt]
63 | Cc1oc(-c2nc3cc(-c4ccccc4C(F)(F)F)cc(C(F)(F)F)c3[nH]2)nc1C(C)(C)C [Compound 194, 2-(4-tert-Butyl-5-methyl-oxazol-2-yl)-7-trifluoromethyl-5-(2-trifluoromethyl-phenyl)-1H-benzimidazole hydrochloride]
41 | Cc1oc(C(C)(C)C)nc1-c1nc2cc(-c3ccccc3)cc(C(F)(F)F)c2[nH]1 [Compound 157, 2-(2-tert-Butyl-5-methyl-oxazol-4-yl)-5-phenyl-7-trifluoromethyl-1H-benzimidazole hydrochloride]
58 | Cc1oc(C(C)(C)C)nc1-c1nc2cc(-c3ccccc3OC(F)(F)F)cc(C(F)(F)F)c2[nH]1 [Compound 156, 2-(2-tert-Butyl-5-methyl-oxazol-4-yl)-5-(2-trifluoromethoxy-phenyl)-7-trifluoromethyl-1H-benzimidazole hydrochloride]
99 | CC(C)(C)c1cc(-c2nc3cc(-c4c(F)cccc4C(F)(F)F)cc(C(F)(F)F)c3[nH]2)on1 [Compound 144, 2-(3-tert-Butyl-isoxazol-5-yl)-5-(2-fluoro-6-trifluoromethyl-phenyl)-7-trifluoromethyl-1H-benzimidazole hydrochloride]
46 | Cc1oc(-c2nc3cc(-c4ccccc4OC(F)(F)F)cc(C(F)(F)F)c3[nH]2)nc1C(C)(C)C [Compound 195, 2-(4-tert-Butyl-5-methyl-oxazol-2-yl)-5-(2-trifluoromethoxy-phenyl)-7-trifluoromethyl-1H-benzimidazole hydrochloride]
11 | Cc1nc(C(C)(C)C)oc1-c1nc2cc(-c3ccccc3C(F)(F)F)cc(C(F)(F)F)c2[nH]1 [Compound 177, 2-(2-tert-Butyl-4-methyl-oxazol-5-yl)-7-trifluoromethyl-5-(2-trifluoromethyl-phenyl)-1H-benzimidazole hydrochloride]
27 | Cc1oc(C(C)(C)C)nc1-c1nc2cc(-c3ccccc3C(F)(F)F)cc(Cl)c2[nH]1 [Compound 165, 2-(2-tert-Butyl-5-methyl-oxazol-4-yl)-7-chloro-5-(2-trifluoromethyl-phenyl)-1H-benzimidazole hydrochloride]
59 | Cc1oc(C(C)(C)C)nc1-c1nc2cc(-c3ccccc3Cl)cc(C(F)(F)F)c2[nH]1 [Compound 155, 2-(2-tert-Butyl-5-methyl-oxazol-4-yl)-5-(2-chloro-phenyl)-7-trifluoromethyl-1H-benzimidazole hydrochloride]

Second part, the compound before the results:

Structure (SMILES) | inhibition at 0.2 µM [%]
Cc1nc(C(C)(C)C)oc1-c1nc2cc(-c3ccccc3F)cc(Cl)c2[nH]1 [Compound 182, 2-(2-tert-Butyl-4-methyl-oxazol-5-yl)-7-chloro-5-(2-fluoro-phenyl)-1H-benzimidazole hydrochloride] | 26
Cn1nc2c(c1-c1nc3cc(-c4ccccc4C(F)(F)F)cc(C(F)(F)F)c3[nH]1)CCC21CCCCC1 [Compound 189] | 99
Cn1nc(C(C)(C)C)c(C#N)c1-c1nc2cc(-c3ccccc3F)cc(C(F)(F)F)c2[n-]1.[Na+] [Compound 147, 3-tert-Butyl-5-[(5-(2-fluoro-phenyl)-7-trifluoromethyl-1H-benzimidazol-2-yl]-1-methyl-1H-pyrazole-4-carbonitrilesodium salt] | 100
Cc1oc(C(C)(C)C)nc1-c1nc2cc(-c3ccccc3OC(F)(F)F)cc(Cl)c2[nH]1 [Compound 159, 2-(2-tert-Butyl-5-methyl-oxazol-4-yl)-7-chloro-5-(2-trifluoromethoxy-phenyl)-1H-benzimidazole hydrochloride] | 19

same assay, conditions: HEK293 cells expressing canine TRPM8, icilin activation; individually measured values (batches/salt forms); read-out: IC50 (nM), in vitro TRP M8 Activity

IC50 | Structure (SMILES)
8.7 nM | Cn1nc(C(C)(C)C)c(C#N)c1-c1nc2cc(-c3c(F)cccc3C(F)(F)F)cc(Cl)c2[nH]1 [Compound 172, 3-tert-Butyl-5-[7-chloro-5-(2-fluoro-6-trifluoromethyl-phenyl)-1H-benzimidazol-2-yl]-1-methyl-1H-pyrazole-4-carbonitrile sodium salt]
2 nM | Cc1c(C(C)(C)C)nn(C)c1-c1nc2cc(-c3c(F)cccc3C(F)(F)F)cc(C(F)(F)F)c2[nH]1 [Compound 119, 2-(5-tert-Butyl-2,4-dimethyl-2H-pyrazol-3-yl)-5-(2-fluoro-6-trifluoromethyl-phenyl)-7-trifluoromethyl-1H-benzimidazole hydrochloride]
3.9 nM and 4 nM | CC(C)(C)c1cc(-c2nc3cc(-c4c(F)cccc4C(F)(F)F)cc(C(F)(F)F)c3[nH]2)on1 [Compound 144, 2-(3-tert-Butyl-isoxazol-5-yl)-5-(2-fluoro-6-trifluoromethyl-phenyl)-7-trifluoromethyl-1H-benzimidazole hydrochloride]
10.2 nM | Cc1c(C(C)(C)C)noc1-c1nc2cc(-c3ccccc3C(F)(F)F)ccc2[nH]1 [Compound 108, 2-(3-tert-Butyl-4-methyl-isoxazol-5-yl)-5-(2-trifluoromethyl-phenyl)-1H-benzimidazole hydrochloride]
3.9 nM | CC(C)(C)c1cc(-c2nc3cc(-c4c(C(F)(F)F)cccc4C(F)(F)F)ccc3[nH]2)on1 [Compound 104, 5-(2,6-Bis-trifluoromethyl-phenyl)-2-(3-tert-butyl-isoxazol-5-yl)-1H-benzimidazole hydrochloride]
5.5 nM | COc1cccc(OC)c1-c1ccc2[nH]c(-c3cc(C(C)(C)C)no3)nc2c1 [Compound 63, 2-(3-tert-Butyl-isoxazol-5-yl)-5-(2,6-dimethoxy-phenyl)-1H-benzimidazole trifluoroacetic acid salt]

The next lines start with the compound.

Structure (SMILES) | IC50
Cc1c(C(C)(C)C)nn(C)c1-c1nc2cc(-c3ccccc3F)ccc2[nH]1 [Compound 93, 2-(5-tert-Butyl-2,4-dimethyl-2H-pyrazol-3-yl)-5-(2-fluoro-phenyl)-1H-benzimidazole hydrochloride] | 10.9 nM
CCCc1cc(-c2nc3ccc(-c4ccccc4OC(F)(F)F)cc3[nH]2)on1 [Compound 19, 2-(3-Propylisoxazol-5-yl)-6-(2-trifluoromethoxyphenyl)-1H-benzimidazole hydrochloride] | 18 nM
CC(C)(C)c1cc(-c2nc3cc(-c4ccccc4Cl)ccc3[nH]2)on1 [Compound 68, 2-(3-tert-Butyl-isoxazol-5-yl)-5-(2-chloro-phenyl)-1H-benzimidazole trifluoroacetic acid salt] | 14.8 nM and 16.3 nM
FC(F)(F)Oc1ccccc1-c1ccc2[nH]c(-c3cc(Cl)no3)nc2c1 [Compound 34, 2-(3-Chloroisoxazol-5-yl)-5-(2-trifluoromethoxyphenyl)-1H-benzimidazole sodium salt] | 72.9 nM
CC(C)(C)c1cc(-c2nc3cc(-c4ccccc4C(F)(F)F)ccc3[nH]2)n(CCO)n1 [Compound 102, 2-{3-tert-Butyl-5-[5-(2-trifluoromethylphenyl)-1H-benzimidazol-2-yl]-pyrazol-1-yl}-ethanol hydrochloride] | 54.4 nM
CC(C)c1cc(-c2nc3cc(-c4ccccc4)ccc3[nH]2)on1 [Compound 1, 2-(3-Isopropylisoxazol-5-yl)-5-phenyl-1H-benzimidazole sodium salt] | 111 nM
FC(F)(F)c1ccccc1-c1ccc2[nH]c(-c3cc(C4CC4)no3)nc2c1 [Compound 16, 2-(3-cyclopropylisoxazol-5-yl)-5-(2-trifluoromethylphenyl)-1H-benzimidazole sodium salt] | 58 nM
FC(F)(F)c1ccccc1-c1ccc2[nH]c(-c3cc(C4CCCC4)no3)nc2c1 [Compound 92, 2-(3-Cyclopentylisoxazol-5-yl)-5-(2-trifluoromethylphenyl)-1H-benzimidazole] | 24.5 nM
CC(C)(C)c1cc(-c2nc3cc(-c4ccccc4OC(F)(F)F)ccc3[nH]2)n(Cc2ccccc2)n1 [Compound 49, 2-(5-tert-Butyl-2-benzyl-2H-pyrazol-3-yl)-5-(2-trifluoromethoxyphenyl)-1H-benzimidazole sodium salt] | 42.3 nM
CCCc1cc(-c2nc3ccc(-c4ccccc4C(F)(F)F)cc3[nH]2)on1 [Compound 18, 2-(3-Propylisoxazol-5-yl)-6-(2-trifluoromethylphenyl)-1H-benzimidazole hydrochloride] | 27 nM
COc1cccc(OC)c1-c1ccc2[nH]c(-c3cc(C(C)(C)C)nn3C)nc2c1 [Compound 54, 2-(5-tert-Butyl-2-methyl-2H-pyrazol-3-yl)-5-(2,6-dimethoxy-phenyl)-1H-benzimidazole trifluoroacetic acid salt] | 3.1 nM
Cn1nc2c(c1-c1nc3cc(-c4ccccc4C(F)(F)F)cc(C(F)(F)F)c3[nH]1)CCC21CCCCC1 [Compound 189] | 10.6 nM
Cn1nc(C(C)(C)C)c(C#N)c1-c1nc2cc(-c3ccccc3F)cc(C(F)(F)F)c2[n-]1.[Na+] [Compound 147, 3-tert-Butyl-5-[(5-(2-fluoro-phenyl)-7-trifluoromethyl-1H-benzimidazol-2-yl]-1-methyl-1H-pyrazole-4-carbonitrilesodium salt] | 5.9 nM and 4.8 nM and 5.1 nM
Cn1nc2c(c1-c1nc3cc(-c4ccccc4OC(F)(F)F)ccc3[nH]1)CCCC2(C)C [Compound 31, 2,7,7-Trimethyl-3-[5-(2-trifluoromethoxyphenyl)-1H-benzimidazol-2-yl]-4,5,6,7-tetrahydro-2H-indazole sodium salt] | 84 nM
Cc1c(C(C)(C)C)nn(C)c1-c1nc2cc(-c3c(F)cccc3F)ccc2[nH]1 [Compound 95, 2-(5-tert-Butyl-2,4-dimethyl-2H-pyrazol-3-yl)-5-(2,6-difluoro-phenyl)-1H-benzimidazole hydrochloride] | 5.7 nM
CC(C)n1nc(C(C)(C)C)cc1-c1nc2cc(-c3ccccc3C(F)(F)F)ccc2[nH]1 [Compound 46, 2-(5-tert-Butyl-2-isopropyl-2H-pyrazol-3-yl)-5-(2-trifluoromethylphenyl)-1H-benzimidazole sodium salt] | 21 nM
